Measurements published in paper PMC2820364 (The Biochemical journal, 2008).

Assays:
p110β (D862Q) = p110β (D862Q) (Homo sapiens, UniProt P42338, D862Q); experiment: PI3K lipid kinase inhibition assay, p110β D862Q mutant; format: biochemical
p110β (E858H) = p110β (E858H) (Homo sapiens, UniProt P42338, E858H); experiment: PI3K lipid kinase inhibition assay, p110β E858H mutant; format: biochemical
p110α (Q859D) = p110α (Q859D) (Homo sapiens, UniProt P42336, Q859D); experiment: PI3K lipid kinase inhibition assay, p110α Q859D mutant; format: biochemical; settings: for Selectivity ratio α/β Gln↔Asp: IC50 ratio p110α-(Q859D) / p110β-(D862Q)
p110α (H855E) = p110α (H855E) (Homo sapiens, UniProt P42336, H855E); experiment: PI3K lipid kinase inhibition assay, p110α H855E mutant; format: biochemical; settings: for Selectivity ratio α/β His↔Glu: IC50 ratio p110α-(H855E) / p110β-(E858H); for loss of potency at H857E-p110α relative to wild type: mutant printed as H857E
p110α WT = p110α WT (Homo sapiens, UniProt P42336); experiment: PI3K lipid kinase inhibition assay, wild-type p110α; format: biochemical; settings: IC50 ratio p110α WT / p110β WT
p110β WT = p110β WT (Homo sapiens, UniProt P42338); experiment: PI3K lipid kinase inhibition assay, wild-type p110β; format: biochemical; settings: for selectivity for p110β relative to p110α (wild type): wild type enzymes
p110β = settings: read-out: IC50 against p110β; 10μM ATP; ref Knight et al. 2006; cited from earlier work

Chain of p110α (H855E) (P42336 whole entry H855E, species assumed): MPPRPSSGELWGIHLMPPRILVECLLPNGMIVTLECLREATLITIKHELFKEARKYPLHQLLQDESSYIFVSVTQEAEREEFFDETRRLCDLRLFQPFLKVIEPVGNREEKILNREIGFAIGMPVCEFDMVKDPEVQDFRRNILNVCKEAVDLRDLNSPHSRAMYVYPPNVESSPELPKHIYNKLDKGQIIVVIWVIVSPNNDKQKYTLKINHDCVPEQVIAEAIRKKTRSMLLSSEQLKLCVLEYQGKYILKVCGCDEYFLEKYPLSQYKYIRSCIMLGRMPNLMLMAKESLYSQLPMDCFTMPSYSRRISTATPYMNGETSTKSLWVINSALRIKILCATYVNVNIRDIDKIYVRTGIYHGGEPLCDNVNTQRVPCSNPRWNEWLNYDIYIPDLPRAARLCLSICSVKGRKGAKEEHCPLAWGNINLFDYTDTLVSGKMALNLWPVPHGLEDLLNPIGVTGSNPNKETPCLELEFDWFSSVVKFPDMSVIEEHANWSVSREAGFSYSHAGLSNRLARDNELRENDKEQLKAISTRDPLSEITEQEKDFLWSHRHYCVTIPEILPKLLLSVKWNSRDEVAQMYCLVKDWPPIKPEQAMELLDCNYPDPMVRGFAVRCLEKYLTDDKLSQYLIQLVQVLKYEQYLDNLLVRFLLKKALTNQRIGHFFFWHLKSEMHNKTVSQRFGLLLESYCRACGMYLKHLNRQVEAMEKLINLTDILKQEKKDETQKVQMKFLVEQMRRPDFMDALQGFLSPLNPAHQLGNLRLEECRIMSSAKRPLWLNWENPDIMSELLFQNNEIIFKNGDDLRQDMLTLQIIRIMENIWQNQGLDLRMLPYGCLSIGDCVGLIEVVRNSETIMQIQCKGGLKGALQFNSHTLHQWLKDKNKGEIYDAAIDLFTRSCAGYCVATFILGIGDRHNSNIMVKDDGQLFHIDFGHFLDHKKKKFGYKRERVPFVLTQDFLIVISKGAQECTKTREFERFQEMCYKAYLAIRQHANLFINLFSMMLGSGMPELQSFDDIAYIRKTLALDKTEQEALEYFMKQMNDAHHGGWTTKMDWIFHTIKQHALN
Chain of p110α (H855E) (P27986 whole entry partner, species assumed): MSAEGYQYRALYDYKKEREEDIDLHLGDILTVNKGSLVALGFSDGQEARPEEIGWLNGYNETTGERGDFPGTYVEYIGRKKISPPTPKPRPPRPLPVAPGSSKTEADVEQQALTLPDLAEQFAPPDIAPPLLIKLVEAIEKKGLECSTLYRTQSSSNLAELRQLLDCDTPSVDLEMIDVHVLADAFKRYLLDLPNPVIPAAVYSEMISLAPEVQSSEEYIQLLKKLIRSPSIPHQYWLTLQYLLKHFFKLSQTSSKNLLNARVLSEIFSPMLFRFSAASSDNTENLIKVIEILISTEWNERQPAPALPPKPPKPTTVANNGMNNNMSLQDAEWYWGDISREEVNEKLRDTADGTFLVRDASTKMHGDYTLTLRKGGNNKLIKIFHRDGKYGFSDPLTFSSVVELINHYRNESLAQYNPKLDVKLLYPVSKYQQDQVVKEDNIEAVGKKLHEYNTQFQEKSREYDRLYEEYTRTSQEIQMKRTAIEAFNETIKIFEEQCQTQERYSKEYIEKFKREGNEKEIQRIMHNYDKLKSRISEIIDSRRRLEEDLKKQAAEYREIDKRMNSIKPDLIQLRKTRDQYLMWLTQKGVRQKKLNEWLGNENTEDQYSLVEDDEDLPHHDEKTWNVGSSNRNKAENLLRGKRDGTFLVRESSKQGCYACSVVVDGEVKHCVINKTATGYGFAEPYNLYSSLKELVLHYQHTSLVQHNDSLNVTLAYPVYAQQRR
Chain of p110β (E858H) (P42338 whole entry E858H, species assumed): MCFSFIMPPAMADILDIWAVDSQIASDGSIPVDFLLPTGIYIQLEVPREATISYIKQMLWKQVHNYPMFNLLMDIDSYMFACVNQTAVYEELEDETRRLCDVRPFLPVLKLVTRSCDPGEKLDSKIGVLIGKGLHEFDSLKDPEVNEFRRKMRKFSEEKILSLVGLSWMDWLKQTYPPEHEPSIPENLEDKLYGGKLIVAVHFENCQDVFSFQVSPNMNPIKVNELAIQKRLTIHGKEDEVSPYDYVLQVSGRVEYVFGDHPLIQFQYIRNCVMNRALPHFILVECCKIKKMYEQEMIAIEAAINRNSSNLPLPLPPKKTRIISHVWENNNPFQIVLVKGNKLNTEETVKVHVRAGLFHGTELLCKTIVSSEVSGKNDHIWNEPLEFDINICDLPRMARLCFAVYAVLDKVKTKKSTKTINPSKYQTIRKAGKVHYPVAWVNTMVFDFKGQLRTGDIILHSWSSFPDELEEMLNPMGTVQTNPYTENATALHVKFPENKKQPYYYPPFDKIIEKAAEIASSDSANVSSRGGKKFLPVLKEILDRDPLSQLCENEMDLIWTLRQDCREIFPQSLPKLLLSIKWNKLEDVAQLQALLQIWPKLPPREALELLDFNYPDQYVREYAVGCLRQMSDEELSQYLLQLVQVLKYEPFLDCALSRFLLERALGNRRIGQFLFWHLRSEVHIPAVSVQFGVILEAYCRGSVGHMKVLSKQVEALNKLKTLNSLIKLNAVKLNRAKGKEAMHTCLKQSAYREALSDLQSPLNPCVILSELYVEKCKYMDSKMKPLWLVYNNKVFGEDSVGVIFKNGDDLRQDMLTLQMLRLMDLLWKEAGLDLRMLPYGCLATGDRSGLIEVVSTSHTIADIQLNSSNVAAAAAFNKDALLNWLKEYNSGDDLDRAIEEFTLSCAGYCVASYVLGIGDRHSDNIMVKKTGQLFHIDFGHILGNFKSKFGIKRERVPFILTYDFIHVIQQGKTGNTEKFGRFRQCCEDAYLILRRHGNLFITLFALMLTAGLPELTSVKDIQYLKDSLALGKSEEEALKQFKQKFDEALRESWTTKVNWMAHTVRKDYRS
Chain of p110β (E858H) (P27986 whole entry partner, species assumed): as the sequence (P27986 whole entry partner, species assumed) above
Chain of p110α (Q859D) (P42336 whole entry Q859D, species assumed): as the sequence (P42336 whole entry H855E, species assumed) above, with E855H, Q859D counted along it
Chain of p110α (Q859D) (P27986 whole entry partner, species assumed): as the sequence (P27986 whole entry partner, species assumed) above
Chain of p110β (D862Q) (P42338 whole entry D862Q, species assumed): as the sequence (P42338 whole entry E858H, species assumed) above, with H858E, D862Q counted along it
Chain of p110β (D862Q) (P27986 whole entry partner, species assumed): as the sequence (P27986 whole entry partner, species assumed) above
Chain of p110α WT (P42336 whole entry): as the sequence (P42336 whole entry H855E, species assumed) above, with E855H counted along it
Chain of p110α WT (P27986 whole entry partner): as the sequence (P27986 whole entry partner, species assumed) above
Chain of p110β WT (P42338 whole entry): as the sequence (P42338 whole entry E858H, species assumed) above, with H858E counted along it
Chain of p110β WT (P27986 whole entry partner): as the sequence (P27986 whole entry partner, species assumed) above

Compound	effect of p110β D862Q mutation on inhibition (in words) (p110β (D862Q); compared with wild type p110β)	effect of p110β E858H mutation on inhibition (in words) (p110β (E858H); compared with wild type p110β)	loss of potency at Q859D-p110α relative to wild type (p110α (Q859D))	Selectivity ratio α/β Gln↔Asp (p110α (Q859D))	Selectivity ratio α/β His↔Glu (p110α (H855E))	loss of potency at H857E-p110α relative to wild type (p110α (H855E))	Selectivity ratio α/β (wt) (p110α WT)	selectivity for p110β relative to p110α (wild type) (p110β WT)	increase in potency at p110β-D862Q relative to wild type (p110β (D862Q))	increase in potency at p110β-E858H relative to wild type (p110β (E858H))	IC50 (p110β) [nM]	reduction in potency at p110β-D862Q relative to wild type (p110β (D862Q))	reduction in potency at p110β-E858H relative to wild type (p110β (E858H))	difference between literature IC50 and IC50 of this study at p110β (p110β WT; 0.12μM (Knight et al. 2006) v. 7nM) [fold]
O=c1cc(N2CCOCC2)oc2c(OCc3ccccc3)cccc12 [TGX102]	indistinguishable from the wild type	indistinguishable from the wild type	3 fold	12.65	17.3	3 fold	4.30	approximately 4 fold						
O=c1cc(N2CCOCC2)oc2c(OCc3cccnc3)cccc12 [TGX132]			5-6 fold	4.59	3.56	5-6 fold	0.34		approximately 2 fold	approximately 2 fold				
TGX286				126.2	106.4		142.0	over 140 fold			120	approximately 2 fold	approximately 2 fold	17
